Legend:
FGF2 [1] = target: T1, FGF2 (Homo sapiens, UniProt P09038); test: SPR direct binding to sensorchip-immobilized FGF2; conditions: single site model, one experiment representative of two, read-out: Kd (dissociation constant) of FGF2/compound interaction
T1 construct: purchased R&D Systems, obtained through the NCI-Biological Resources Branch
Description: SPR measurements were performed on a BIAcore X100 instrument (GE-Healthcare, WI). FGF2 was immobilized on a CM5 sensorchip (GE-Healthcare) as described, allowing the immobilization of 7,365 resonance units (RU) (410 fmol/mm^2 of FGF-2).
Suppl. Table S2. Determination of the affinity (Kd) of the FGF2/compound interactions by
Binding parameters were calculated by the non-linear curve fitting software package BIAevaluation
3.2 using a single site model with correction for mass transfer. Dissociation constant (Kd) values
were derived from the dissociation rate/association ratio. Only sensorgrams whose fitting gave
values of X2 lower than 10 were used {Khalifa, 2001 #213}.

FGF2 [2] = target: T1, FGF2; test: Competition with biotinylated recombinant TSP-1 domain (E123CaG1) for binding to FGF2 (DELFIA); conditions: for IC50: mean ± SE of 3 experiments; for fold more active than the initial query SM27 (competition IC50): vs SM27
FGF2 [3] = target: T1, FGF2; test: as above; conditions: 5 μM
Source text: Of the identified hits, 23 (Fig. 1 and Suppl. Table S1), made available from the NCI (NIH), were subjected to experimental analysis of FGF2 binding. We used an indirect assay, based on the competition of the tested molecules with the recombinant TSP-1 type III domain for binding to FGF2, an approach previously employed to analyze the FGF2/SM27 binding.
Figure 2 FGF2-binding property of the selected hits, analyzed with an indirect assay, as ability to compete with the TSP-1 fragment E123CaG1 (comprising the type III repeats domain) for FGF2 binding, as described in Methods. Binding of the biotinylated recombinant domain to FGF2 in the presence or absence of each molecule (5 μM). Data are the percentage of control binding, mean and SE of 3 experiments performed in triplicate. *p < 0.05 compared to control (ANOVA followed by Bonferroni test).
DELFIA® Microtitration plates and reagents were from PerkinElmer. Plates were coated overnight at 4 °C with FGF2 (0.1 μg in 40 μl /well PBS). After washing, non-specific binding sites were saturated by a 30 minute incubation with PBS 1% BSA. The biotin-labeled recombinant TSP-1 fragment (10 nM) was added in 40 μl PBS 1% BSA with or without the indicated concentration of small molecules, and incubated for 3 h at room temperature. The plates were washed with PBS 0.1% BSA and incubated for 1 h with 100 μl/well Eu-Labeled Streptavidin 1:1000 at room temperature. After washing, plates were incubated with DELFIA® Enhancement Solution. Time resolved fluorescence was measured using a Victor[3] multilabel plate reader (PerkinElmer).

[4] = tested on: FGF2-induced vessels sprouting, murine aortic rings; test: Aortic rings assay (FGF2-induced vessels sprouting, 3D Matrigel); set-up: species or system C57BL/6 mice; conditions: FGF2 30 ng/ml, small molecules 100 μM
Description: Figure 4 Biological activity of the selected hits. (A) Endothelial cell proliferation. BAEC were exposed to FGF2 (5 ng/ml) with increasing concentrations of molecules (3–80 μM). After 72 h, cells were stained and proliferation measured as absorbance. Data are the percentage of control proliferation (in absence of molecules), mean of value from 2 experiments performed in triplicate. (B–D) Aortic ring assay. Sections of murine aortas were embedded in Matrigel, in the presence of FGF2 (30 ng/ml) and the indicated small molecule. The formation of capillary structures sprouting from the rings was analyzed after 7 and 11 days as described in Methods, and the angiogenic response expressed as area covered by the sprouting structures (arbitrary units, mean and SE, n ≥ 6). (B) Antiangiogenic activity of the small molecules (100 μM). (C) Examples of time-dependent and dose-dependent effect of two compounds (SM.2–20 and SM.2–23), tested at 100 (diamond), 50 (circle) and 25 μM (triangle) compared to control (black squares). (D) Representative pictures of sprouting from control and SM.2–23 treated aortic sections. Original magnification, 20x. (E,F) Chorioallantoic membrane assay. FGF2 (200 ng) was administered in the absence or presence of the indicated compound (0.5 μg) on day 8 (n = 10). (E) Angiogenic response is evaluated 4 days later, and expressed as number of vessels entering the sponge (mean and SD). (F) Representative pictures are shown. Original magnification, 50x.
Thoracic aortas were removed from mice, cleaned of perivascular adipose tissue and cut into 1 mm segments. Matrigel (75 μl, BD Biosciences) was added to 96 well plates, and allowed to gellify at 37 °C for 30 min. Aortic sections were added to the wells, and covered with a second layer of Matrigel and DMEM 5% FCS containing FGF2 (30 ng/ml) and the indicated concentration of the compounds. The formation of capillary structures sprouting from the rings was analyzed after 4, 7 and 11 days with an inverted-phase contrast microscope (IX70; Olympus). Images were analyzed with ImageJ 1.48, and the angiogenic response expressed as area covered by the sprouting structures (arbitrary units), substracted the area of the aortic section.

[5] = Dynamic Light Scattering (photon correlation spectroscopy) and Zeta potential analysis of aggregates in solution; assay type: physicochemical; conditions: for Zeta potential: 1mg/ml solution, in mV (unit assumed)
Source text: Binding of 5 water-soluble compounds to FGF2 was further analyzed by surface plasmon resonance (SPR). All the compounds were able to bind FGF2 immobilized to a SPR sensorchip (Suppl. Figure S2). […] In the context of biophysical characterization of compounds, we also tested the formation of aggregates in solution by representative compounds SM.2-16, SM.2-20 and SM.2-23, using Dynamic Light Scattering, which allows measuring nanoparticle size and polydispersion index (by Photocorrelation Spectroscopy) and surface charge (Zeta potential). For all the molecules, at concentrations between 0.03 and 1 mg/ml, the hydrodynamic radius ranged from 2.1 to 2.9 nm, with polydispersity index values between 0.5 and 0.6 (Table 2): no significant variation in the hydrodynamic radius was observed upon decreasing the concentrations, typically indicative of a non-aggregated state. Zeta potential values were strongly negative (indicative of molecule dissociation), ranging from −48 to −52 (Table 2). These findings therefore indicate that the solutions are fairly monodispersed, containing mainly single, charged molecules.
The Photon correlation spectroscopy (PCS) and the Zeta Potential (Zp) values were measured using the Zetasizer Nano ZS (Malvern, Worcestshire, UK), as detailed in Supplementary Material. Data were analyzed by Zetasizer software, version 7.11 (Malvern, Worcestshire, UK).
Photon correlation spectroscopy and Zeta Potential analysis. Photon correlation spectroscopy (PCS) and the Zeta Potential (Zp) values were measured using the Zetasizer Nano ZS (Malvern, Worcestshire, UK) with a fixed 173° scattering angle and a 633 -nm-helium-neon-laser. Data were analyzed by Zetasizer software, version 7.11 (Malvern, Worcestshire, UK). The set up temperature […]
Samples were dissolved in 1 ml of deionized water with 1% HBSS (Hanks’ Balanced Salt solution) to obtain a concentration of about 3mg/ml. For PCS experiments the solution was further diluted with HBSS to the indicated concentration, transferred to a disposable folded capillary cell at room temperature and analyzed 10’ minutes post-diluting.
For Zp measurements, 1mg/ml solution of the compounds were used. Due to the high conductivity of buffer solution precluding electrophoretic mobility measurements, about 3mg of samples were solubilized in 1% HBSS and diluted with suitable volume of deionized water. The solution, was transferred to a disposable folded capillary cell (Malvern, Worcestshire, UK) at room temperature and analyzed 10’ post-diluting. […]

T1 sequence (P09038 134-288 limits assumed): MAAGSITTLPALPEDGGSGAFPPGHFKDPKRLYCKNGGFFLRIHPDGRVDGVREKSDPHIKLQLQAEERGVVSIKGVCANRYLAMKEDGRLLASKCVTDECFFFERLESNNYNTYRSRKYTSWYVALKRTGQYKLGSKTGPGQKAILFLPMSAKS

Structure (SMILES)	Kd (FGF2 [1])	IC50 (FGF2 [2])	prevention of FGF2/TSP-1 binding (first screening) (FGF2 [3])	inhibition of FGF2-induced vessels sprouting [4]	Hydrodynamic Radius ([5]; 0.03125 mg/ml)	PdI (polydispersion index) ([5]; 0.03125 mg/ml)	Hydrodynamic Radius ([5]; 0.0625 mg/ml)	PdI (polydispersion index) ([5]; 0.0625 mg/ml)	Hydrodynamic Radius ([5]; 0.125 mg/ml)	PdI (polydispersion index) ([5]; 0.125 mg/ml)	Hydrodynamic Radius ([5]; 0.25 mg/ml)	PdI (polydispersion index) ([5]; 0.25 mg/ml)	Hydrodynamic Radius ([5]; 0.5 mg/ml)	PdI (polydispersion index) ([5]; 0.5 mg/ml)	Hydrodynamic Radius ([5]; 1 mg/ml)	PdI (polydispersion index) ([5]; 1 mg/ml)	Zeta potential [5]	fold more active than the initial query SM27 (competition IC50) (FGF2 [2])
O=C(Nc1ccc2cc(S(=O)(=O)O)cc(O)c2c1)Nc1ccc2cc(S(=O)(=O)O)cc(O)c2c1 [SM27, 6,6'-(carbonylbis(azanediyl))bis(4-hydroxynaphthalene-2-sulfonic acid), reference compound]	335 nM	3900 ± 230 nM	–	–	–	–	–	–	–	–	–	–	–	–	–	–	–	–
O=C(Nc1ccc2cc(S(=O)(=O)O)cc(S(=O)(=O)O)c2c1)Nc1ccc2cc(S(=O)(=O)O)cc(S(=O)(=O)O)c2c1 [SM.2–11, 7,7'-(carbonylbis(azanediyl))bis(naphthalene-1,3-disulfonic acid)]	–	–	lost	–	–	–	–	–	–	–	–	–	–	–	–	–	–	–
O=C(Nc1ccc2c(O)c(/N=N/c3ccccc3)c(S(=O)(=O)O)cc2c1)Nc1ccc2c(O)c(/N=N/c3ccccc3)c(S(=O)(=O)O)cc2c1 [SM.2–12, 4-hydroxy-7-(3-(5-hydroxy-6-((E)-phenyldiazenyl)-7-sulfonaphthalen-2-yl)ureido)-3-((E)-phenyldiazenyl)naphthalene-2-sulfonic acid]	–	–	reduced activity	–	–	–	–	–	–	–	–	–	–	–	–	–	–	–
COc1ccccc1/N=N/c1c(S(=O)(=O)O)cc2cc(NC(=O)Nc3ccc4c(O)c(/N=N/c5ccc6cc(S(=O)(=O)O)ccc6c5N)c(S(=O)(=O)O)cc4c3)ccc2c1O [SM.2–16, 3-((E)-(1-amino-6-sulfonaphthalen-2-yl)diazenyl)-4-hydroxy-7-(3-(5-hydroxy-6-((E)-(2-methoxyphenyl)diazenyl)-7-sulfonaphthalen-2-yl)ureido)naphthalene-2-sulfonic acid]	125 nM	590 ± 90 nM	–	significantly inhibited	2.140 nm	0.495	2.364 nm	0.742	2.149 nm	0.452	2.511 nm	0.663	2.265 nm	0.533	2.283 nm	0.695	−48.0	6–11 fold
CC(=O)Nc1ccc(/N=N/c2c(S(=O)(=O)O)cc3cc(NC(=O)Nc4ccc5c(O)c(/N=N/c6ccccc6)c(S(=O)(=O)O)cc5c4)ccc3c2O)cc1 [SM.2–19, 3-((E)-(4-acetamidophenyl)diazenyl)-4-hydroxy-7-(3-(5-hydroxy-6-((E)-phenyldiazenyl)-7-sulfonaphthalen-2-yl)ureido)naphthalene-2-sulfonic acid]	–	350 ± 30 nM	–	not	–	–	–	–	–	–	–	–	–	–	–	–	–	6–11 fold
Cc1ccccc1/N=N/c1c(S(=O)(=O)O)cc2cc(NC(=O)Nc3ccc4c(O)c(/N=N/c5ccc6cc(S(=O)(=O)O)ccc6c5)c(S(=O)(=O)O)cc4c3)ccc2c1O [SM.2–20, 4-hydroxy-7-(3-(5-hydroxy-7-sulfo-6-((E)-(6-sulfonaphthalen-2-yl)diazenyl)naphthalen-2-yl)ureido)-3-((E)-o-tolyldiazenyl)naphthalene-2-sulfonic acid]	318 nM	500 ± 110 nM	–	significantly inhibited	2.186 nm	0.523	2.159 nm	0.658	2.172 nm	0.635	2.480 nm	0.789	2.571 nm	0.518	2.878 nm	0.595	−50.2	6–11 fold
Cc1cccc(/N=N/c2c(S(=O)(=O)O)cc3cc(NC(=O)Nc4ccc5c(O)c(/N=N/c6ccc7cc(S(=O)(=O)O)ccc7c6)c(S(=O)(=O)O)cc5c4)ccc3c2O)c1 [SM.2–22, 4-hydroxy-7-(3-(5-hydroxy-7-sulfo-6-((E)-(6-sulfonaphthalen-2-yl)diazenyl)naphthalen-2-yl)ureido)-3-((E)-m-tolyldiazenyl)naphthalene-2-sulfonic acid]	39 nM	420 ± 90 nM	–	significantly inhibited	–	–	–	–	–	–	–	–	–	–	–	–	–	6–11 fold
Cc1ccc(/N=N/c2c(S(=O)(=O)O)cc3cc(NC(=O)Nc4ccc5c(O)c(/N=N/c6ccc7cc(S(=O)(=O)O)ccc7c6)c(S(=O)(=O)O)cc5c4)ccc3c2O)c(C)c1 [SM.2–23, 3-((E)-(2,4-dimethylphenyl)diazenyl)-4-hydroxy-7-(3-(5-hydroxy-7-sulfo-6-((E)-(6-sulfonaphthalen-2-yl)diazenyl)naphthalen-2-yl)ureido)naphthalene-2-sulfonic acid]	93 nM	530 ± 110 nM	–	significantly inhibited	–	–	2.370 nm	0.677	2.765 nm	0.557	2.951 nm	0.59	2.597 nm	0.539	2.877 nm	0.545	−52.2	6–11 fold

Reference: paper PMC4802308, “Integrating computational and chemical biology tools in the discovery of antiangiogenic small molecule ligands of FGF2 derived from endogenous inhibitors” (Scientific Reports, 2016)
